Converted amounts (≈) assume the structure as drawn. Bounds are passed on as bounds.

What all share (format): cell-based
The subject of one test is Escherichia coli K12. As to the kind of experiment: Microbroth dilution MIC. The following applies: for MIC: Escherichia coli K12. How it is done: (§1) Antimicrobial Assays. Susceptibility testing was performed using the microbroth dilution method in 96 round-well microtiter plates following the general guidelines described by the Clinical and Laboratory Standards Institute (CLSI). Compounds were prepared as 50λ of stocks (10 mM) by dissolving in dI H2O. All bacterial strains were grown and assayed in Mueller-Hinton and M9 glucose media (with amendments added as required), and yeast strains in YMM. Overnight cultures were inoculated into 3 mL of fresh growth media following a 1:100 dilution. Upon mid-exponential growth (OD600 0.4-0.6), cultures were diluted to 5×10^6 CFU mL-1 (based on previously determined calibration curves) and used as inoculum into assay plates. Wells contained 100 μL of media with 5×10^5 CFU mL-1 of test organism, and serial ½-dilutions of the test compound (starting with 200 μM). E. coli WM6242 was assayed with induction of the phosphonic acid uptake system including 1 mM IPTG in assay wells. Controls wells contained 200 µM kanamycin (for bacteria) or nystatin (for yeasts), no compound addition (vehicle only), and no cell addition (added media instead). Microtiter plates were incubated with shaking (220 rpm) at their respective growth temperatures. Culture densities (OD600) were recorded using a Bio-Rad xMark microplate spectrophotometer after 16 hours for all strains except Bacillus, which were after 24 hours. Assays were performed in triplicated on separate independent days. […] Minimum inhibitory concentrations are from triplicate assays performed on separate days.
(§2) Antimicrobial Assays. […] Susceptibility testing was performed using the microbroth dilution method in 96 round-well microtiter plates as previously described [A20]. Compounds were prepared as 50× of stocks (10 Mm) by dissolving in Di H2O. All bacterial strains were grown and assayed M9 glucose media (with amendments added as required), and yeast strains in YMM. Controls wells contained 200 µM kanamycin (for bacteria) or nystatin (for yeasts), no compound addition (vehicle only), and no cell addition (added media instead). Culture densities (OD600) were recorded using a Bio-Rad xMark microplate spectrophotometer after 16 hours for all strains except bacilli, which were recorded after 24 hours. […] MICs values are from triplicate assays performed on separate days. Disk diffusion assays were used to assess antimicrobial activity of the purified compounds against filamentous fungi and against Mycobacterium smegmatis [A20].

For the next test, the system named is Pseudomonas aeruginosa K. The test is described as follows: Microbroth dilution MIC. Conditions: for MIC: Pseudomonas aeruginosa K. The protocol: as §1, §2
The test system of the next test is Salmonella enterica LT2. As to the kind of experiment: Microbroth dilution MIC. Conditions: for MIC: Salmonella enterica LT2. How it is done: as §1, §2
Test [1] relates to Serratia marcescens NRRL B-2544. As to the kind of experiment: Microbroth dilution MIC. The following applies: for MIC: Serratia marcescens NRRL B-2544. The protocol:
as §1, §2

Test [2] concerns Curtobacterium sp. MMLR14_014. As to the kind of experiment: Antibacterial susceptibility testing. Conditions: strains of Curtobacterium commonly present in soils and on plants. How it is done:
as §2

Test [3] deals with Acinetobacter calcoaceticus ATCC 23055. The test is described as follows: Microbroth dilution MIC. How it is done:
as §1, §2

The subject of test [4] is Bacillus megaterium ATCC 19213. The test is described as follows: Microbroth dilution MIC. The protocol:
as §1, §2

Test [5] deals with Bacillus subtilis ATCC 6633. The test is described as follows: Microbroth dilution MIC. The protocol:
as §1, §2

The test system of test [6] is Citrobacter freundii ATCC 8090. The test is described as follows: Microbroth dilution MIC. The protocol:
as §1, §2

Test [7] has as its system Enterobacter aerogenes CDC 1998-68. As to the kind of experiment: Microbroth dilution MIC. How it is done: as §1, §2
The test system of test [8] is Erwinia rhapontici KSJ3948. The test is described as follows: Microbroth dilution MIC. The protocol:
as §1, §2

Test [9] deals with Pantoea ananatis LMG 20103. The test is described as follows: Microbroth dilution MIC. The protocol: as §1, §2
For test [10], the system named is Pseudomonas aeruginosa PA01. As to the kind of experiment: Microbroth dilution MIC. How it is done:
as §1, §2

In a further test the test system is Rhodococcus jostii RHA1. As to the kind of experiment: Microbroth dilution MIC. The protocol:
as §1, §2

For test [11], the system named is Staphylococcus aureus ATCC 23055. The test is described as follows: Microbroth dilution MIC. The protocol: as §1, §2
The subject of another test is Escherichia coli WM6242. The test is described as follows: Microbroth dilution MIC. The following applies: Table 2 (MIC90), triplicate. The protocol:
(§3) Antimicrobial Assays. […] Compounds were prepared as 50λ of stocks (10 mM) by dissolving in dI H2O. […] Overnight cultures were inoculated into 3 mL of fresh growth media following a 1:100 dilution. Upon mid-exponential growth (OD600 0.4-0.6), cultures were diluted to 5×10^6 CFU mL-1 (based on previously determined calibration curves) and used as inoculum into assay plates. Wells contained 100 μL of media with 5×10^5 CFU mL-1 of test organism, and serial ½-dilutions of the test compound (starting with 200 μM). E. coli WM6242 was assayed with induction of the phosphonic acid uptake system including 1 mM IPTG in assay wells. […] Microtiter plates were incubated with shaking (220 rpm) at their respective growth temperatures. […] Assays were performed in triplicated on separate independent days. […] Minimum inhibitory concentrations are from triplicate assays performed on separate days.

The subject of test [12] is Escherichia coli WM6242 (Pn Uptake Induced). The test is described as follows: Microbroth dilution MIC, phosphonate uptake induced with 1 mM IPTG. The protocol: as §3
The subject of test [13] is Acidovorax avenae ATCC 19860. The test is described as follows: Microbroth dilution MIC. Conditions: Paracidovorax avenae, ATCC19860, Table 13, minimal media. How it is done: as §2
Test [14] has as its system Acidovorax citrulli ATCC 29625. The test is described as follows: Microbroth dilution MIC. The following applies: Paracidovorax citrulli, ATCC29625, Table 13, minimal media. The protocol:
as §2

Test [15] concerns Acidovorax konjacii ATCC 33996. The test is described as follows: Microbroth dilution MIC. Conditions: Table 13, minimal media. How it is done: as §2
Test [16] relates to Acidovorax temperans ATCC 49665. As to the kind of experiment: Microbroth dilution MIC. The following applies: ATCC49665, Table 13, minimal media. The protocol:
as §2

For test [17], the system named is Acidovroax delafieldii ATCC 17505. The test is described as follows: Microbroth dilution MIC. Conditions: Table 13, minimal media. How it is done:
as §2

The subject of test [18] is Pseudomonas fluorescens Pf5. As to the kind of experiment: Microbroth dilution MIC. The following applies: Table 13, minimal media. The protocol: as §2
In test [19] the test system is Pseudomonas medocina Palleroni ATCC 25411. As to the kind of experiment: Microbroth dilution MIC. Conditions: ATCC25411, Table 13, minimal media. How it is done: as §2
For test [20], the system named is Pseudomonas syringae pv. Tomato Max 14. The test is described as follows: Microbroth dilution MIC. Conditions: Table 13, minimal media. The protocol:
as §2

In test [21] the test system is Salmonella enterica ser. Livingstone 1236H. The test is described as follows: Microbroth dilution MIC. How it is done:
as §2

For test [22], the system named is Salmonella enterica ser. Tennessee E2007000304. As to the kind of experiment: Microbroth dilution MIC. Conditions: Table 13, minimal media. The protocol:
as §2

In test [23] the test system is Pseudomonas syringae B278a. The test is described as follows: microbe, parasite or virus in culture. Conditions: Table 13, minimal media. How it is done: as §2
Test [24] has as its system yeast, and filamentous fungi. As to the kind of experiment: Antifungal activity: microbroth dilution (yeasts) and disk diffusion (filamentous fungi). The following applies: panel of yeast and filamentous fungi (Table 12). How it is done:
Antimicrobial Assays. Susceptibility testing was performed using the microbroth dilution method in 96 round-well microtiter plates following the general guidelines described by the Clinical and Laboratory Standards Institute (CLSI). Compounds were prepared as 50λ of stocks (10 mM) by dissolving in dI H2O. All bacterial strains were grown and assayed in Mueller-Hinton and M9 glucose media (with amendments added as required), and yeast strains in YMM. Overnight cultures were inoculated into 3 mL of fresh growth media following a 1:100 dilution. Upon mid-exponential growth (OD600 0.4-0.6), cultures were diluted to 5×10^6 CFU mL-1 (based on previously determined calibration curves) and used as inoculum into assay plates. Wells contained 100 μL of media with 5×10^5 CFU mL-1 of test organism, and serial ½-dilutions of the test compound (starting with 200 μM). E. coli WM6242 was assayed with induction of the phosphonic acid uptake system including 1 mM IPTG in assay wells. […] Culture densities (OD600) were recorded using a Bio-Rad xMark microplate spectrophotometer after 16 hours for all strains except Bacillus, which were after 24 hours. […]
Antimicrobial Assays. […] Culture densities (OD600) were recorded using a Bio-Rad xMark microplate spectrophotometer after 16 hours for all strains except bacilli, which were recorded after 24 hours. […]

The mark [25] stands for this setting: ATCC23055, Table 2 (MIC90), microbroth dilution, triplicate.
The mark [26] stands for this setting: Table 13, minimal media, ≥90% growth inhibition.
Setting [27] is: Table 2 (MIC90), microbroth dilution, triplicate.

`CC(N)C(=O)NC(C)C(=O)NC(CP(=O)(O)O)C(=O)O` (stereo not drawn) [Compound 3]: the “inhibitory activity compared with phosphonoalamide A (previously measured)” value in the test with Escherichia coli K12 (E. coli K12, i.e. lower MICs) is “greater inhibitory activity”; in the test on Pseudomonas aeruginosa K (P. aeuroginosa K, i.e. lower MICs) it was “greater inhibitory activity”; with Salmonella enterica LT2 (S. enterica LT2, i.e. lower MICs), “greater inhibitory activity”; in [1] (S. marcescens B-2544, i.e. lower MICs), “greater inhibitory activity”. Besides, in [2], the “inhibition (in words)” value is “Neither compound inhibited”.
For the molecule `CC(N)C(=O)NC(CP(=O)(O)O)C(=O)O` (stereo not drawn) [Compound 2], the MIC is more than 200 µM in test [3] (setting [25]); more than 200 µM in [3] (Table 13, minimal media); 12.5 µM (≈ 3 µg/mL) in [4] (Priestia megaterium, ATCC19213, Table 2 (MIC90), microbroth dilution, triplicate); 12.5 µM (≈ 3 µg/mL) in [4] (Table 13, minimal media); 200 µM (≈ 48 µg/mL) in test [5] (ATCC6633, Table 2 (MIC90), microbroth dilution, triplicate); 200 µM (≈ 48 µg/mL) in test [5] (Table 13, minimal media). In addition, the MIC in [6] (ATCC8090, Table 2 (MIC90), microbroth dilution, triplicate) was more than 200 µM; in test [6] (setting [26]), more than 200 µM; in test [7] (Klebsiella aerogenes, CDC199868, Table 2 (MIC90), microbroth dilution, triplicate), more than 200 µM; in test [7] (setting [26]) it was more than 200 µM; in test [8] (KSJ3948, Table 2 (MIC90), Erwinia rhapontici KSJ, microbroth dilution, triplicate) it was more than 200 µM; in test [8] (Table 13, Erwinia rhapontici KSJ3948, minimal media, ≥90% growth inhibition) it was more than 200 µM. Also, the MIC with Escherichia coli K12 (setting [27]) was more than 200 µM; in the test on Escherichia coli K12 (setting [26]) it was more than 200 µM; in test [9] (LMG20103, Table 2 (MIC90), microbroth dilution, triplicate), 100 µM (≈ 24 µg/mL); in test [9] (setting [26]), 100 µM (≈ 24 µg/mL); in the test with Pseudomonas aeruginosa K (setting [27]) it was more than 200 µM; against Pseudomonas aeruginosa K (Table 13, minimal media), more than 200 µM. Moreover, the MIC is more than 200 µM in [10] (setting [27]); more than 200 µM in test [10] (Table 13, minimal media); more than 200 µM in the test on Rhodococcus jostii RHA1 (setting [27]); more than 200 µM with Rhodococcus jostii RHA1 (Table 13, minimal media); more than 200 µM against Salmonella enterica LT2 (setting [27]); more than 200 µM against Salmonella enterica LT2 (setting [26]). Further, the MIC in [1] (NRRLB2544, Table 2 (MIC90), microbroth dilution, triplicate) was more than 200 µM; in test [1] (Table 13, minimal media), more than 200 µM; in test [11] (setting [25]), more than 200 µM; in test [11] (Table 13, minimal media) it was more than 200 µM; against Escherichia coli WM6242 it was more than 200 µM; in test [12] it was more than 200 µM. Also, the MIC in test [13], in [14], in [15], in test [16], in test [17] and in test [18] was more than 200 µM throughout. In addition, the MIC in test [19], in test [20], in test [21], in test [22] and in [23] was more than 200 µM throughout. In addition, the “antifungal activity (in words)” value in [24] is reported as “neither compound exhibited antifungal activity”. Further, in test [2], the “inhibition (in words)” value is “Neither compound inhibited”.
